Reference: US9012513B2, “Antioxidant, antioxidant composition and production method therefor” (Watanabe Oyster Laboratory Co., Ltd., priority 2011, dated 2015)
“Also recorded” adds a separate entry of the source.

Columns and labels:
[1] = test system: cell line (C3A) in a liver; assay: oxidation of DPPP-labeled hepatocyte culture (C3A) by AAPH; type: cell-based; details: cultured for 5 days with the substance, compared with cell without the substance
Method: FIG. 12 illustrates the principle of the fluorescence of the diphenyl-1-pyrenlphosphine (DPPP). Using the fluorescent dye, the degree of oxidation of a cell line (C3A) in a liver was observed.
A cell where the 3,5-dihydroxy-4-methoxybenzyl alcohol according to the present invention had been added was cultured for 5 days. The cell labeled by DPPP was oxidized by 2,2′-azobis (2-methylpropionamidine)dihydrochloide, and then the fluorescence intensity of the DPPP in each cell was measured. […] It was confirmed that the antioxidant substance, 3,5-dihydroxy-4-methoxybenzyl alcohol, reduced the oxidation (see FIG. 13).

normal human LDL = assay: metal oxidation of normal human LDL by copper sulfate, quantitated by TBARS method; type: biochemical
Method: When normal human LDL is oxidized by copper sulfate, 3,5-dihydroxy-4-methoxybenzyl alcohol was added, and the degree of oxidation of the LDL was quantitated by a TBARS method (see FIG. 11). […] The Lag-time refers to a period where a rise of a curve is not observed. It is determined that, as the time increases, antioxidant activity occurs. However, the lag-time was extended by dose dependency. The lag-time was 2 hours for addition of 270 μM, 4 hours for addition of 360 μM, and 5 hours for addition of 450 μM and 540 μM.

[2] = antioxidant capacity by the ORAC method (Fluorescein, AAPH); type: biochemical
Method: The 3,5-dihydroxy-4-methoxybenzyl alcohol can be separated and purified by the following operation. First, Trolox (Wako) or a test sample of 0.05 mL dissolved in a mixed solution of 0.075 mol/L phosphoric acid buffer solution 2.3 of 5 mL, 6.3×10^−7 mol/L Fluorescein (fluorescent probe) of 0.3 mL, and 7% (w/v) methylated β-cyclodextrin (Wako) was warmed for 10 minutes at 37° C.
1.28×10^−1 mol/L2,2′-azobis(2-amidinopropane)dihydrochloride (AAPH, Wako), which has been preliminarily warmed at 37° C., was added by 0.3 mL. For example, while stirring with a stirrer, a fluorescence intensity (excitation wavelength: 493 nm, fluorescence wavelength: 515 nm) was measured for every 10 seconds and up to 5,000 seconds by a spectrofluorophotometer (FP-6500 , JASCO, Tokyo).
An antioxidant activity is indicated by length of period (for example, the horizontal axis in FIG. 5) during which a measured fluorescence value (the vertical axis in the same drawing) at the start of measurement is maintained. The longer the period, the stronger the antioxidant activity is.
Methods for measuring an antioxidant substance in a food product have been variously reported. However, all the methods have a drawback and an advantage, and therefore the method has not been standardized or determined as an official method (confirmation of validity of an analysis value). However, in the United States of America, a supplement and a beverage with an ORAC value have already been on the market. This trend is becoming a world standard. Accordingly, in this working example, the antioxidative potency is measured by the ORAC method.
A research conference that studies on employing the ORAC method as an official method (Antioxidant-Unit Research Association) has already been founded in Japan. The ORAC method has advantages in that both a soluble sample and a liposoluble sample can be measured and the above-described any organic solvent fractions can be measured. […]

[3] = properties of the separated and purified substance (solubility); type: physicochemical
Text: Here, the properties of 3,5-dihydroxy-4-methoxybenzyl alcohol, which was separated and purified, will be described. […] It was confirmed that the 3,5-dihydroxy-4-methoxybenzyl alcohol was a phenolic compound as illustrated in FIG. 8.

## COc1c(O)cc(CO)cc1O [3,5-dihydroxy-4-methoxybenzyl alcohol]
[1]
  fluorescence intensity of DPPP / oxidation of C3A cell: concentration dependence and low fluorescence intensity; also recorded: significantly reduced oxidation of a C3A cell; also recorded: showed an antioxidant capacity in a dose-dependent manner
Normal human LDL; addition of 270 μM
  lag-time of LDL oxidation: 2 h
Normal human LDL; addition of 360 μM
  lag-time of LDL oxidation: 4 h
Normal human LDL; addition of 450 μM
  lag-time of LDL oxidation: 5 h
Normal human LDL; addition of 540 μM
  lag-time of LDL oxidation: 5 h
Normal human LDL; copper sulfate, TBARS
  effect on metal oxidation of the LDL: reduced the metal oxidation of the LDL; also recorded: showed an antioxidant capacity in a dose-dependent manner
Normal human LDL; substance added at 180 μM
  lag-time of LDL oxidation: lag-time was not observed
[2]
  ORAC value relative to that of L(+)-ascorbic acid: three times
[2]; length of period during which the fluorescence value is maintained
  antioxidant capacity / antioxidant activity observed by the ORAC method: high antioxidant activity was observed; also recorded: high antioxidant capacity between those of a chlorogenic acid and L(+)- the ascorbic acid
[2]; synthesized product
  ORAC value: 1.47±0.40 μmoITE/μmol
[3]
  solubility: show lipid solubility and water solubility
